Source: ChEMBL document CHEMBL1138413, “Development of SPECT imaging agents for the norepinephrine transporters: [123I]INER” (Bioorg Med Chem Lett, 2007)

Key:
[1] = molecular target: Sodium-dependent dopamine transporter (Rattus norvegicus, UniProt P23977); test: Displacement of [3H]GBR from DAT in rat brain membranes; format: cell membranes
[2] = molecular target: Norepinephrine transporter (Rattus norvegicus, UniProt Q9WTR4); test: Displacement of [3H]nisoxetine from NET in rat brain membranes; format: cell membranes
Chain of Norepinephrine transporter (Q9WTR4 whole entry): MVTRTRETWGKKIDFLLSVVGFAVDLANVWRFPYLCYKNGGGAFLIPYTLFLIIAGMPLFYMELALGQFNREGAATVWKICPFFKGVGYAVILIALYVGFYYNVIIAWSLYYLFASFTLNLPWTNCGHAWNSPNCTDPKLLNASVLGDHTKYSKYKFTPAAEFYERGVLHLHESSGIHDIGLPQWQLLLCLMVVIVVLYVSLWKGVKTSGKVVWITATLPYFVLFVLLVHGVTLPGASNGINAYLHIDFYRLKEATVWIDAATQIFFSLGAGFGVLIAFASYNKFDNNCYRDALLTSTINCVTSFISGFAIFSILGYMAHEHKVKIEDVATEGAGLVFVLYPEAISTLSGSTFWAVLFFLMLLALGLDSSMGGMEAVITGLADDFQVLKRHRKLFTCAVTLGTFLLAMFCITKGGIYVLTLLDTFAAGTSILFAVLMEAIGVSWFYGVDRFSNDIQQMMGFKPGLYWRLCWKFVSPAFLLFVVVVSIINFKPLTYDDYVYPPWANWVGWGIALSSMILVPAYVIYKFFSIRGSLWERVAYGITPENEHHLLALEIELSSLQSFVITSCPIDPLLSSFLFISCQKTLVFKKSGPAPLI

[3] = molecular target: Sodium-dependent serotonin transporter (Rattus norvegicus) (UniProt P31652); test: Inhibition of SERT in rat brain membrane at 10 uM; format: cell membranes
Chain of Sodium-dependent serotonin transporter (Rattus norvegicus) (P31652 whole entry): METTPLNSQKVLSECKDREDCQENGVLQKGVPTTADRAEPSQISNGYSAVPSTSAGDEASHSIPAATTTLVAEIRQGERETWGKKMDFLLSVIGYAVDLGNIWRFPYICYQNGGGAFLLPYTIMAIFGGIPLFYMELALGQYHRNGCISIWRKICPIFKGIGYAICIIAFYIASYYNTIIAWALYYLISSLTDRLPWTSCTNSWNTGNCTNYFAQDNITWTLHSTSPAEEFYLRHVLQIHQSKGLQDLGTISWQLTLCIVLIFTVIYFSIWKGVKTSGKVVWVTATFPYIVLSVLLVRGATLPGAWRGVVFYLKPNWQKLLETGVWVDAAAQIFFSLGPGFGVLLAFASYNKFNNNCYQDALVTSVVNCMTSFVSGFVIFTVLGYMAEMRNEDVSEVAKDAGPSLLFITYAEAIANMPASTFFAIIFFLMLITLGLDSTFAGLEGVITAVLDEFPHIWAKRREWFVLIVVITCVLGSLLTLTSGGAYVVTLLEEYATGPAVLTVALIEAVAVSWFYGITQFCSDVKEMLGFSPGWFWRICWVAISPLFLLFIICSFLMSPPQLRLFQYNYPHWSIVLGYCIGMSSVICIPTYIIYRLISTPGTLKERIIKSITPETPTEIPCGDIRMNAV

[4] = molecular target: Sodium-dependent serotonin transporter (Rattus norvegicus, UniProt P31652); test: Displacement of [3H]paroxetine from SERT in brain membranes; format: cell membranes, Membrane
Chain of Sodium-dependent serotonin transporter (P31652 whole entry): as above

[5] = Lipophilicity, log D at pH 7.4; format: physicochemical; conditions: buffer
[6] = system: Brain; test: Drug uptake in olive baboon brain at 7.89 mCi after 10 mins; format: ADME, tissue-based; conditions: papio anubis, in vivo

Chain of Sodium-dependent dopamine transporter (P23977 whole entry): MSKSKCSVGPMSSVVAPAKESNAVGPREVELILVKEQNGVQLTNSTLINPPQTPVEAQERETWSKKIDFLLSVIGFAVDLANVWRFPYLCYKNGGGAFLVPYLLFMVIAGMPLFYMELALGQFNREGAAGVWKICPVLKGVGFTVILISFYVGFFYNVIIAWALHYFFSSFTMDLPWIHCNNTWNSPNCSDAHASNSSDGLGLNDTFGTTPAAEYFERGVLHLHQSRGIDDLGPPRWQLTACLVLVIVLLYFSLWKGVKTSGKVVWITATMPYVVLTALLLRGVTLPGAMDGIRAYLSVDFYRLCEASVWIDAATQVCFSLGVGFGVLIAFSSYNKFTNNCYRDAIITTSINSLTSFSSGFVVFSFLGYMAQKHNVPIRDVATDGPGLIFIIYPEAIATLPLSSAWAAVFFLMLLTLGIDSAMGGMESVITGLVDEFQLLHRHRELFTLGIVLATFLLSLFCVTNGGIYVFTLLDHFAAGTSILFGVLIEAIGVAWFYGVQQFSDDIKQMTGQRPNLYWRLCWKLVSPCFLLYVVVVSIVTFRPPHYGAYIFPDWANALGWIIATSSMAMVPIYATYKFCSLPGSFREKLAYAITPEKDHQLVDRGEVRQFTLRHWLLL

SMILES	Ki [1] [nM]	Ki [2] [nM]	inhibition [3] [%]	Ki [4] [nM]	logD [5]	Drug uptake [6] [%ID]
Ic1ccccc1OC(c1ccccc1)C1CNCCO1 (racemic)	410	2.47	40	–	–	–
Cc1ccccc1OC(c1ccc(I)s1)C1CNCCO1 (racemic)	186	71.9	31	–	–	–
Ic1ccccc1O[C@@H](c1ccccc1)[C@@H]1CNCCO1	228	0.84	–	40.4	–	–
[125I]c1ccccc1O[C@@H](c1ccccc1)[C@@H]1CNCCO1	–	–	–	–	2.6	1
O=[N+]([O-])c1ccccc1COC(c1cccc(I)c1)C1CNCCO1 (racemic)	14.2	70.4	–	252	–	–

The next lines start with the values.

Ki [1] [nM]	Ki [2] [nM]	inhibition [3] [%]	Ki [4] [nM]	logD [5]	Drug uptake [6] [%ID]	SMILES
1870	101	–	486	–	–	FC(F)(F)c1ccccc1OC(c1cccc(I)c1)C1CNCCO1 (racemic)
740	27.6	24	–	–	–	Cc1ccccc1OC(c1cccc(I)c1)C1CNCCO1 (racemic)
3140	28.5	44	–	–	–	CCOc1ccccc1OC(c1cccc(I)c1)C1CNCCO1 (racemic)
210	79.6	–	141	–	–	COc1ccccc1OC(c1ccc(I)s1)C1CNCCO1 (racemic)
716	73.8	–	351	–	–	COc1ccccc1COC(c1cccc(I)c1)C1CNCCO1 (racemic)
> 10000	15.4	12	–	–	–	COc1ccccc1OC(c1cccc(I)c1)C1CNCCO1 (racemic)
